Measurements as given in patent US20080045537A1, “Chemical Compounds” (priority 2004, published 2008).
Where two headings read alike, the source gives them in different places.

Tests used:
Type in all cases: cell-based
human CXCR4 = target: T1, human CXCR4 (Homo sapiens, UniProt P61073); experiment: Functional FLIPR assay (block of SDF-1 alpha induced [Ca2+]i change); conditions: HEK-293 cells with human CXCR4 BacMam and Gqi5 BacMam; antagonism of SDF-1 alpha; read-out: Functional assay (pIC50) (converted)
T1 construct: expressed in transfected cells; host or cells: HEK-293 cells (stably expressing human macrophage scavenging receptor) transduced with human CXCR4 BacMam and Gqi5 BacMam baculoviruses
Description: Human embryonic kidney (HEK-293) cells were maintained and harvested as described above. Cells were plated in 96-well, black clear bottom, poly-lysine coated plates at a concentration of 40,000 cells per well in a final volume of 100 ul containing human CXCR4BacMam (MOI=25) and Gqi5 BacMam (MOI=12.5). The cells were incubated at 37° C., 5% CO2, 95% humidity for 24 h to allow for protein expression.
After the required incubation time the cells were washed once with 50 ul of fresh serum-free DMEM/F12 media containing probenicid. 50 ul of dye solution was then added to the cells (Calcium Plus Assay Kit Dye; Molecular Devices) was dissolved in 200 ml of the above probenicid/BSA containing media and incubated for 1 h. Cell plates were transferred to a Fluorometric Imaging Plate Reader (FLIPR). Upon addition the effect of the compounds on the change in [Ca^2+]i was examined to determine if the compounds were agonists or antagonists (ability to block SDF-1 alpha activity) at the CXCR4 receptor. IC50 values are determined and pKb values are calculated using the Leff and Dougall equation: KB=IC50/((2+([agonist]/EC50ˆb)ˆ1/b−1) Where IC50 is that defined by the antagonist concentration-response curve [agonist] is the EC80 concentration of agonist used EC50 is that defined by the agonist concentration-response curve b is the slope of the agonist concentration-response curve.

[1] = system: HIV-1 gp160 (from the HXB2 HIV strain); experiment: Cell/cell fusion assay (HEK-293 expressing HIV-1 tat, rev, gp160 with HOS hCXCR4/hCCR5/hCD4/pHIV-LTR-luciferase cells); conditions: Human immunodeficiency virus 1, HXB2, HEK293, 24 h, read-out: Fusion assay (pIC50), luciferase readout after 24 h (converted)
Description: The complete coding sequences of HIV-1 tat (GenBank Accession No. X07861) and rev (GenBank Accession No. M34378) were cloned into pcDNA3.1 expression vectors containing G418 and hygromycin resistance genes, respectively. The complete coding sequence of the HIV-1 (HXB2 strain) gp160 envelope gene (nucleotide bases 6225-8795 of GenBank Accession No. K03455) was cloned into plasmid pCRII-TOPO. The three HIV genes were additionally inserted into the baculovirus shuttle vector, pFastBacMam1, under the transcriptional control of the CMV promoter. A construction of the pHIV-I LTR containing mutated NFkB sequences linked to the luciferase reporter gene was prepared by digesting pcDNA3.1, containing the G418 resistance gene, with Nru I and Bam HI to remove the CMV promoter. LTR-luc was then cloned into the Nru I/Bam HI sites of the plasmid vector. Plasmid preparations were performed after the plasmids were amplified in Escherichia coli strain DH5-alpha. The fidelity of the inserted sequences was confirmed by double-strand nucleotide sequencing using an ABI Prism Model 377 automated sequencer.
Recombinant BacMam baculoviruses were constructed from pFastBacMam shuttle plasmids by using the bacterial cell-based Bac-to-Bac system. Viruses were propagated in Sf9 (Spodoptera frugiperda) cells cultured in Hink's TNM-FH Insect media supplemented with 10% (v/v) fetal bovine serum and 0.1% (v/v) pluronic F-68 according to established protocols.
Human osteosarcoma (HOS) cells that naturally express human CXCR4 were transfected with human CCR5, human CD4 and the pHIV-LTR-luciferase plasmid using FuGENE 6 transfection reagent. Single cells were isolated and grown under selection condition in order to generate a stable HOS (hCXCR4/hCCR5/hCD4/pHIV-LTR-luciferase) clonal cell line. The cells were maintained in Dulbeccos modified Eagles media supplemented with 10% fetal calf serum (FCS), G418 (400 ug/ml), puromycin (1 ug/ml), mycophenolic acid (40 ug/ml), xanthine (250 ug/ml) and hypoxanthine (13.5 ug/ml) to maintain a selection pressure for cells expressing the LTR-luciferase, hCCR5 and hCD4, respectively. Human embryonic kidney (HEK-293) cells stably transfected to express the human macrophage scavenging receptor (Class A, type 1; GenBank Accession No. D90187), were maintained in DMEM/F-12 media (1:1) supplemented with 10% FCS and 1.5 ug/ml puromycin. The expression of this receptor by the HEK-293 cells enhances their ability to stick to tissue culture treated plasticware.
HEK-293 cells were harvested using enzyme-free cell dissociation buffer. The cells were resuspended in DMEM/F-12 media supplemented with 10% FCS and 1.5 ug/ml and counted. Tranductions were performed by direct addition of BacMam baculovirus containing insect cell media to cells. The cells were simultaneously transduced with BacMam baculovirus expressing HIV-1 tat, HIV-1 rev and HIV-1 gp160 (from the HXB2 HIV strain). Routinely an MOI of 10 of each virus was added to the media containing the cells. 2 mM butyric acid was also added to the cells at this stage to increase protein expression in transduced cells. The cells were subsequently mixed and seeded into a flask at 30 million cells per T225. The cells were incubated at 37° C., 5% CO2, 95% humidity for 24 h to allow for protein expression.
HEK and HOS cells were harvested in DMEM/F-12 media containing 2% FCS and DMEM media containing 2% FCS, respectively, with no selection agents added. Compounds were plated as 1 ul spots in 100% DMSO on a 96-well CulturPlate plates. HOS cells (50 ul) were added first to the wells, followed immediately by the HEK cells (50 ul). The final concentration of each cell type was 20,000 cells per well. Following these additions, the cells were returned to a tissue culture incubator (37° C.; 5% CO2/95% air) for an additional 24 h.
Following the 24 h incubation, total cellular luciferase activity was measured using the LucLite Plus assay kit (Packard, Meridien, Conn.). […]

[2] = Compound cytotoxicity in the absence of virus addition (CellTiter-Glo); conditions: human; non-infected HOS cultures; read-out: Cytotox (pIC50) (converted)
Description: Compounds were profiled against two HIV-1 viruses, the M-tropic (CCR5 utilizing) Ba-L strain and the T-tropic (CXCR4 utilizing) IIIB strain. Both viruses were propagated in human peripheral blood lymphocytes. Compounds were tested for there ability to block infection of the HOS cell line (expressing hCXCR4/hCCR5/hCD4/pHIV-LTR-luciferase) by either HIV-1 Ba-L or HIV-1 IIIB. Compound cytotoxicity was also examined in the absence of virus addition.
HOS cells (expressing hCXCR4/hCCR5/hCD4/pHIV-LTR-luciferase) were harvested and diluted in Dulbeccos modified Eagles media supplemented with 2% FCS and non-essential amino acid to a concentration of 60,000 cells/ml. The cells were plated into 96-well plates (100 ul per well) and the plates were placed in a tissue culture incubator (37° C.; 5% CO2/95% air) for a period of 24 h.
Subsequently, 50 ul of the desired drug solution (4 times the final concentration) was added to each well and the plates were returned to the tissue culture incubator (37° C.; 5% CO2/95% air) for 1 h. Following this incubation 50 ul of diluted virus was added to each well (approximately 2 million RLU per well of virus). The plates were returned to the tissue culture incubator (37° C.; 5% CO2/95% air) and were incubated for a further 96 h.
Following this incubation the endpoint for the virally infected cultures was quantified following addition of Steady-Glo Luciferase assay system reagent (Promega, Madison, Wis.). Cell viability or non-infected cultures was measured using a CellTiter-Glo luminescent cell viability assay system (Promega, Madison, Wis.). All luminescent readouts are performed on a Topcount luminescence detector (Packard, Meridien, Conn.).

[3] = system: HIV-1 IIIB (T-tropic, CXCR4 utilizing); experiment: HOS HIV-1 infectivity assay
Method in brief: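 Engineered HOS reporter cells in 2% FCS medium received compound 1 h ahead of HIV-1 (~2 million RLU/well). Cultures ran 96 h at 37 °C before luciferase quantitation; parallel uninfected wells were scored for viability by CellTiter-Glo.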

[4] = Human immunodeficiency virus 1, IIIB, as determined by the infectivity assay, strain not stated in Table 2, read-out: Activity Level
[5] = Human immunodeficiency virus 1, HIV-1 IIIB, HOS cells, 96 h, luciferase readout, read-out: HOS (3B)

T1 sequence (P61073 whole entry): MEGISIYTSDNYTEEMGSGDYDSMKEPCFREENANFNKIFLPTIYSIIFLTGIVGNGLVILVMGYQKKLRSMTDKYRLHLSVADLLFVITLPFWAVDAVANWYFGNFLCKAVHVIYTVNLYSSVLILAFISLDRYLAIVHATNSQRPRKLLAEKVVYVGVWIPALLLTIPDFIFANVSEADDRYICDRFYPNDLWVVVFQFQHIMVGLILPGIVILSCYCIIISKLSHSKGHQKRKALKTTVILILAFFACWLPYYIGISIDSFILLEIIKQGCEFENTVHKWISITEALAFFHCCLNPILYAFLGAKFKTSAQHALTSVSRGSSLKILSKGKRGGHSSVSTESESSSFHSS

Structure (SMILES) | IC50 (human CXCR4) [nM] | IC50 [1] [nM] | IC50 at 96 h [2] [nM] | IC50 [3, 4] [nM] | IC50 [3, 5] [nM]
CN(Cc1nc2cccc(C(=O)NCCc3c[nH]cn3)c2n1C)C1CCCc2cccnc21 (centres unmarked) [Example 7, N-[2-(1H-Imidazol-4-yl)ethyl]-1-methyl-2-{[methyl(5,6,7,8-tetrahydro-8-quinolinyl)amino]methyl}-1H-benzimidazole-7-carboxamide] | 8.51 | 55 | > 100000 | < 100 | 8
CN(Cc1nc2cccc(C(=O)N3CCNCC3)c2n1C)C1CCCc2cccnc21 (centres unmarked) [Example 8, N-Methyl-N-{[1-methyl-7-(1-piperazinylcarbonyl)-1H-benzimidazol-2-yl]methyl}-5,6,7,8-tetrahydro-8-quinolinamine] | 33.9 | 53.7 | > 100000 | < 100 | 43
CN(Cc1nc2c(C(=O)NCCc3c[nH]cn3)cccc2n1C)C1CCCc2cccnc21 (centres unmarked) [Example 9, N-[2-(1H-Imidazol-4-yl)ethyl]-1-methyl-2-{[methyl(5,6,7,8-tetrahydro-8-quinolinyl)amino]methyl}-1H-benzimidazole-4-carboxamide] | 91.2 | 75.9 | > 100000 | < 100 | 56
CN(Cc1nc2c(C(=O)N3CCNCC3)cccc2n1C)C1CCCc2cccnc21 (centres unmarked) [Example 10, N-Methyl-N-{[1-methyl-4-(1-piperazinylcarbonyl)-1H-benzimidazol-2-yl]methyl}-5,6,7,8-tetrahydro-8-quinolinamine] | 1410 | 1910 | > 100000 | 500 to 10000 | 840
CN(Cc1nc2cccc(C(=O)NCCCCN)c2[nH]1)C1CCCc2cccnc21 (centres unmarked) [Example 11, N-(4-Aminobutyl)-2-{[methyl(5,6,7,8-tetrahydro-8-quinolinyl)amino]methyl}-1H-benzimidazole-4-carboxamide] | 257 | 741 | > 100000 | 100 to 500 | 395
CC(C)CN1CCN(c2cccc3[nH]c(CN(C)C4CCCc5cccnc54)nc23)CC1 (centres unmarked) [Example 36, N-methyl-N-({4-[4-(2-methylpropyl)-1-piperazinyl]-1H-benzimidazol-2-yl}methyl)-5,6,7,8-tetrahydro-8-quinolinamine] | – | – | > 100000 | < 100 | 50
Cn1c(CN(CCCO)[C@H]2CCCc3cccnc32)nc2cccc(N3CCNCC3)c21 [Example 179, 3-{{[1-Methyl-7-(1-piperazinyl)-1H-benzimidazol-2-yl]methyl}[(8S)-5,6,7,8-tetrahydro-8-quinolinyl]amino-}1-propanol] | – | – | – | < 100 | –
CN1CCN(c2cccc3nc(CN(CCO)[C@H]4CCCc5cccnc54)n(C)c23)CC1 [Example 180, 2-{{[1-Methyl-7-(4-methyl-1-piperazinyl)-1H-benzimidazol-2-yl]methyl}[(8S)-5,6,7,8-tetrahydro-8-quinolinyl]amino}ethanol] | – | – | – | < 100 | –
CN1CCN(c2cccc3nc(CN(CCCO)[C@H]4CCCc5cccnc54)n(C)c23)CC1 [Example 181, 3-{{[1-Methyl-7-(4-methyl-1-piperazinyl)-1H-benzimidazol-2-yl]methyl}[(8S)-5,6,7,8-tetrahydro-8-quinolinyl]amino}-1-propanol] | – | – | – | < 100 | –
CN1CCN(c2cccc3nc(CNC4CCc5cccnc54)[nH]c23)CC1 (centres unmarked) [Example 182, N-{[4-(4-Methyl-1-piperazinyl)-1H-benzimidazol-2-yl]methyl}-6,7-dihydro-5H-cyclopenta[b]pyridin-7-amine] | – | – | – | 100 to 500 | –
CN1CCN(c2cccc3nc(CN(C)C4CCc5cccnc54)[nH]c23)CC1 (centres unmarked) [Example 183, N-Methyl-N-{[4-(4-methyl-1-piperazinyl)-1H-benzimidazol-2-yl]methyl}-6,7-dihydro-5H-cyclopenta[b]pyridin-7-amine] | – | – | – | < 100 | –
CN1CCN(c2cccc3nc(CNC4CCCCc5cccnc54)[nH]c23)CC1 (centres unmarked) [Example 184, N-{[4-(4-methyl-1-piperazinyl)-1H-benzimidazol-2-yl]methyl}-6,7,8,9-tetrahydro-5H-cyclohepta[b]pyridin-9-amine] | – | – | – | < 100 | –
CN1CCN(c2cccc3nc(CN(C)C4CCCCc5cccnc54)[nH]c23)CC1 (centres unmarked) [Example 185, N-methyl-N-{[4-(4-methyl-1-piperazinyl)-1H-benzimidazol-2-yl]methyl}-6,7,8,9-tetrahydro-5H-cyclohepta[b]pyridin-9-amine] | – | – | – | < 100 | –
